Assay results taken from patent EP3046573B1, “AMYLIN ANALOGUES” (Zealand Pharma A/S, priority 2013, dated 2015).
pEC50: −log10 of the molar value. Read-outs that look alike come from different tables or passages of the source. Numbered stars: 1 amine (or outer) side, 2 acyl side, 3 side chain; on linkers, the order of the positions; unused ones are H or OH. Bridge positions count the residues as written; N and C are the ends. Square brackets hold non-standard residues; d marks the D form. Peptide text beside a SMILES is read from it. * marks the point of attachment. C20 diacid = O=C(O)CCCCCCCCCCCCCCCCCCC(=O)*; γGlu = O=C(O)[C@H](CCC(=O)[*:2])N[*:1]; Hyp = O=C(O)[C@@H]1C[C@@H](O)CN1; NMeI = CC[C@H](C)[C@H](NC)C(=O)O; Sar = CNCC(=O)O

What was measured:
[1] = biological target: T1, human calcitonin receptor (hCTR2) (Homo sapiens, UniProt P30988); test: hCTR2 assay: induction of cAMP (AlphaScreen cAMP Assay kit) in COS7 cells expressing hCTR2; type: cell-based
T1 construct: expressed in transfected cells
T1 sequence (P30988 25-474): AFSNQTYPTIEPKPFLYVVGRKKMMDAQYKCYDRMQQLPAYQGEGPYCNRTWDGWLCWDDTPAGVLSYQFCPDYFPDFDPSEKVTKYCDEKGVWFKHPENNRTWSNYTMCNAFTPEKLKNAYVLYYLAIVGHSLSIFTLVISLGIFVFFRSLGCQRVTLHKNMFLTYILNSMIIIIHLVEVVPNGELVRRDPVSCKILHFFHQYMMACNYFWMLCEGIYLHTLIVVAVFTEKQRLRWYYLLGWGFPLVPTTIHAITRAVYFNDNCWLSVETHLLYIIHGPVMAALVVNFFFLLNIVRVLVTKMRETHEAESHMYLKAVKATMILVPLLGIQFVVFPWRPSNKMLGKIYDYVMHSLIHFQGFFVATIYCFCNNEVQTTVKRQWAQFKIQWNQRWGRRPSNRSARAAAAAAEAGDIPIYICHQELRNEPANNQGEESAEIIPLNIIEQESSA
Method in brief: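 cAMP induction was measured by AlphaScreen in COS7 cells stably expressing hCTR2 without RAMPs, after 15 min at 37° C with increasing peptide concentrations, 100 µM IBMX and 0.1% casein (Tyrode, pH 7.4). A 4-parameter logistic fit gave EC50 and % efficacy versus pramlintide.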

[2] = Solubility assessment (turbidity absorbance at 325 nm); type: physicochemical; conditions: stock 2 mg/ml diluted 1:1, ambient temperature (typically 25°C), n=1; for Solubility, Acetate buffer pH 4: 100 mM acetate buffer pH 4.0; for Solubility, Acetate buffer pH 5: 100 mM acetate buffer pH 5.0; for Solubility, Histidine buffer pH 6: 100 mM histidine buffer pH 6.0; for Solubility, Histidine buffer pH 7: 100 mM histidine buffer pH 7.0; for Solubility, Phosphate buffer pH 6: 100 mM phosphate buffer pH 6.0; for Solubility, Phosphate buffer pH 7: 100 mM phosphate buffer pH 7.0; for Solubility, Phosphate buffer pH 7.5: 100 mM phosphate buffer pH7.5
Method in brief: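 Read-out: turbidity as absorbance at 325 nm (280 nm also read), single samples, ambient temperature of typically 25°C. Samples were a 1:1 mix of 2 mg/ml stock (water, pH 2.5) with 100 mM acetate, histidine or phosphate buffers spanning pH 4.0–7.5. Cut-off: A325 ≤ 0.02 indicates ≥ 1 mg/ml.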

[3] = Assessment of physical stability: fibril formation detected with Thioflavin T (ThT), lag-time; type: physicochemical; conditions: 1 mg/ml peptide, 40 µM ThT, FND = Fibrillation not detected; for Fibrillation lag time (hours) pH 4.0 (Ac): 50 mM acetate buffer pH 4.0, 96 hours at 40°C; for Fibrillation lag time (hours) pH 7.0 (Ph): 50 mM phosphate buffer pH 7.0, 96 hours at 40°C
Description: Solutions containing (i) 1 mg/ml of test peptide, 40 µM ThT and 50 mM phosphate (Ph) buffer (pH 7.0), (ii) 1 mg/ml of test peptide, 40 µM ThT and 50 mM histidine (His) buffer (pH 7.0), and (iii) 1 mg/ml of test peptide, 40 µM ThT and 50 mM acetate (Ac) buffer (pH 4.0), were loaded in a 96-well black fluorescence plate (clear bottom) in triplicate. Data were collected at fixed intervals of 10 min, each preceded by 300 s of automixing (agitation), over a period of 96 hours at 40° C. Physical stability, expressed as lag-time of fibril formation (in hours), was defined as the intersection between two linear regressions representing the initial stable phase and the growth phase.

[4] = biological target: T2, human amylin receptor 3 (hAMYR3) consisting of hCTR2 co-expressed with human Receptor Activity Modifying Protein 3 (hRAMP3) (Homo sapiens, UniProt O60896+P30988); test: hAMYR3 assay: induction of cAMP (AlphaScreen cAMP Assay kit) in COS7 cells expressing hAMYR3; type: cell-based; conditions: cAMP induction in COS7 cells expressing hAMYR3; average of a minimum of 3 determinations; read-out: hAMY R3 EC50
T2 construct: expressed in transfected cells
T2 sequence (P30988 25-474): T1 sequence (P30988 25-474)
T2 sequence (O60896 24-148 partner): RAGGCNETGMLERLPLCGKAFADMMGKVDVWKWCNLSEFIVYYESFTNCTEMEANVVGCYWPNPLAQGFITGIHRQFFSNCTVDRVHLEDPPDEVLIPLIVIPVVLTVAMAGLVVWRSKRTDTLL
Method in brief: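 cAMP accumulation read by AlphaScreen in lysates of RAMP-naive COS7 cells stably transfected with hCTR2 plus hRAMP3. Cells exposed to peptide dilutions for 15 min, 37° C, with 100 µM IBMX; 4PL fitting gave EC50 and efficacy relative to pramlintide.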

pEC50 ([1]; cAMP induction in COS7 cells expressing hCTR2, average of a minimum of 3 determinations, read-out: hCTR2 EC50) | pEC50 [4] | Compound | pEC50 [1] | Solubility, Acetate buffer pH 4 [2] | Solubility, Acetate buffer pH 5 [2] | Solubility, Histidine buffer pH 6 [2] | Solubility, Histidine buffer pH 7 [2] | Solubility, Phosphate buffer pH 6 [2] | Solubility, Phosphate buffer pH 7 [2] | Solubility, Phosphate buffer pH 7.5 [2] | Fibrillation lag time (hours) pH 4.0 (Ac) [3] | Fibrillation lag time (hours) pH 7.0 (His) ([3]; 50 mM histidine buffer pH 7.0, 96 hours at 40°C) | Fibrillation lag time (hours) pH 7.0 (Ph) [3]
– | – | CC[C@H](C)[C@@H](C(=O)N[C@@H](CC(C)C)C(=O)N[C@@H](CO)C(=O)N[C@@H](CO)C(=O)N[C@H](C(=O)N[C@@H](CC(N)=O)C(=O)N[C@H](C(=O)NCC(=O)N[C@@H](CO)C(=O)N[C@@H](Cc1c[nH]cn1)C(=O)N[C@H](C(=O)N[C@@H](Cc1ccc(O)cc1)C(N)=O)[C@@H](C)O)C(C)C)[C@@H](C)O)N(C)C(=O)[C@H](C)NC(=O)CN(C)C(=O)[C@H](Cc1ccccc1)NC(=O)[C@H](CC(N)=O)NC(=O)[C@H](CC(N)=O)NC(=O)[C@H](CO)NC(=O)[C@H](CO)NC(=O)[C@H](Cc1c[nH]cn1)NC(=O)[C@H](Cc1c[nH]cn1)NC(=O)[C@H](CC(C)C)NC(=O)[C@H](Cc1ccccc1)NC(=O)[C@H](CCC(=O)O)NC(=O)[C@H](C)NC(=O)[C@H](CC(C)C)NC(=O)[C@H](CCCNC(=N)N)NC(=O)[C@H](CCC(N)=O)NC(=O)[C@@H](NC(=O)[C@H](C)NC(=O)[C@@H]1CSSC[C@H](NC(=O)[C@H](CCCCN)NC(=O)CC[C@H](NC(=O)CCCCCCCCCCCCCCCCCCC(=O)O)C(=O)O)C(=O)N[C@@H](CC(N)=O)C(=O)N[C@@H]([C@@H](C)O)C(=O)N[C@@H](C)C(=O)N[C@@H]([C@@H](C)O)C(=O)N1)[C@@H](C)O [Compound 3, [19CD]-isoGlu-KC()NTATC()ATQRLAEFLHHSSNNF-Gly(Me)-A-Ile(Me)-LSSTNVGSHTY-NH2] ({C20 diacid-γGlu}-KCNTATCATQRLAEFLHHSSNNF[Sar]A[NMeI]LSSTNVGSHTY-NH2; disulfide 2-7) | 8.89 | SS (SS indicates solubility ≥ 1mg/ml) | SS (SS indicates solubility ≥ 1mg/ml) | SS (SS indicates solubility ≥ 1mg/ml) | II** (II indicates solubility ≤ 1 mg/ml) | SS (SS indicates solubility ≥ 1mg/ml) | II (II indicates solubility ≤ 1 mg/ml) | II (II indicates solubility ≤ 1 mg/ml) | FND | FND | FND
9.24 | 9.15 | CC[C@H](C)[C@@H](C(=O)N[C@@H](CC(C)C)C(=O)N[C@@H](CO)C(=O)N[C@@H](CO)C(=O)N[C@H](C(=O)N[C@@H](CCC(=O)O)C(=O)N[C@H](C(=O)NCC(=O)N[C@@H](CO)C(=O)N[C@@H](CCC(=O)O)C(=O)N[C@H](C(=O)N1C[C@H](O)C[C@H]1C(N)=O)[C@@H](C)O)C(C)C)[C@@H](C)O)N(C)C(=O)[C@H](C)NC(=O)CN(C)C(=O)[C@H](Cc1ccccc1)NC(=O)[C@H](CO)NC(=O)[C@H](CO)NC(=O)[C@H](CO)NC(=O)[C@H](CO)NC(=O)[C@H](CCCNC(=N)N)NC(=O)[C@H](Cc1c[nH]cn1)NC(=O)[C@H](CC(C)C)NC(=O)[C@H](Cc1ccccc1)NC(=O)[C@H](CCC(=O)O)NC(=O)[C@H](C)NC(=O)[C@H](CC(C)C)NC(=O)[C@H](CCCNC(=N)N)NC(=O)[C@H](CCC(=O)O)NC(=O)[C@@H](NC(=O)[C@H](C)NC(=O)[C@@H]1CSSC[C@H](NC(=O)[C@H](CCCCN)NC(=O)[C@H](CCCCN)NC(=O)CC[C@H](NC(=O)CCCCCCCCCCCCCCCCCCC(=O)O)C(=O)O)C(=O)N[C@@H](CCC(=O)O)C(=O)N[C@@H]([C@@H](C)O)C(=O)N[C@@H](C)C(=O)N[C@@H]([C@@H](C)O)C(=O)N1)[C@@H](C)O [Compound 168, [19CD]-isoGlu-KKC()ETATC()ATERLAEFLHRSSSSF-Gly(Me)-A-Ile(Me)-LSSTEVGSET-Hyp-NH2] ({C20 diacid-γGlu}-KKCETATCATERLAEFLHRSSSSF[Sar]A[NMeI]LSSTEVGSET[Hyp]-NH2; disulfide 3-8) | – | SS (SS indicates solubility ≥ 1mg/ml) | II (II indicates solubility ≤ 1 mg/ml) | SS (SS indicates solubility ≥ 1mg/ml) | SS (SS indicates solubility ≥ 1mg/ml) | SS (SS indicates solubility ≥ 1mg/ml) | SS (SS indicates solubility ≥ 1mg/ml) | SS (SS indicates solubility ≥ 1mg/ml) | – | – | –
– | – | CC[C@H](C)[C@H](NC(=O)[C@@H]1CCCN1C(=O)CNC(=O)[C@H](Cc1ccccc1)NC(=O)[C@H](CC(N)=O)NC(=O)[C@H](CC(N)=O)NC(=O)[C@H](CO)NC(=O)[C@H](CO)NC(=O)[C@H](Cc1c[nH]cn1)NC(=O)[C@@H](NC(=O)[C@H](CC(C)C)NC(=O)[C@H](Cc1ccccc1)NC(=O)[C@H](CC(N)=O)NC(=O)[C@H](C)NC(=O)[C@H](CC(C)C)NC(=O)[C@H](CCCNC(=N)N)NC(=O)[C@H](CCC(N)=O)NC(=O)[C@@H](NC(=O)[C@H](C)NC(=O)[C@@H]1CSSC[C@H](NC(=O)[C@@H](N)CCCCN)C(=O)N[C@@H](CC(N)=O)C(=O)N[C@@H]([C@@H](C)O)C(=O)N[C@@H](C)C(=O)N[C@@H]([C@@H](C)O)C(=O)N1)[C@@H](C)O)C(C)C)C(=O)N[C@@H](CC(C)C)C(=O)N1CCC[C@H]1C(=O)N1CCC[C@H]1C(=O)N[C@H](C(=O)N[C@@H](CC(N)=O)C(=O)N[C@H](C(=O)NCC(=O)N[C@@H](CO)C(=O)N[C@@H](CC(N)=O)C(=O)N[C@H](C(=O)N[C@@H](Cc1ccc(O)cc1)C(N)=O)[C@@H](C)O)C(C)C)[C@@H](C)O [pramlin tide] | – | – | – | – | – | – | – | – | 48 hours | – | 2 hours
